Values of other authors as cited in patent US20050159809A1, “Implantable medical devices for treating or preventing restenosis” (Medtronic Vascular, Inc., priority 2004, published 2005).

System: balloon-injury induced neointimal thickening and macrophage accumulation
Conditions: four weeks after balloon de-endothelialization

CC(C)(Sc1cc(C(C)(C)C)c(O)c(C(C)(C)C)c1)Sc1cc(C(C)(C)C)c(O)c(C(C)(C)C)c1 [probucol, {[bis(3,5-di-tert-butyl-4-hydroxyphenyl)thio]propane}]
absolute neointima thickness (high cholesterol rabbit food plus 1% probucol vs cholesterol-only diet, P<0.05): reduced
macrophage content in the neointima (high cholesterol rabbit food plus 1% probucol vs high cholesterol feed without probucol, P<0.001): lower
